In BindingDB's records for patent US20250034169 (Sunshine Lake Pharma Co., 2025):

Key:
[1] = biological target: GTPase KRas [G12D]/RAF proto-oncogene serine/threonine-protein kinase (Homo sapiens, UniProt P01116+P04049, G12D); assay: KRAS G12D/cRAF Binding Assay
Procedure: (§1) (1) Compound was prepared with DMSO, and diluted by 3-fold gradient with DMSO.(2) 0.1 μl of serial dilutions of the compound was added to a 384-well plate.(3) 5 μl of Tag2-KRASG12D>P at a specific concentration was added to the 384-well plate, and the plate was centrifuged at 1000 rpm for 1 min.(4) Then 5 μl of Tag1-cRAF at a specific concentration was added to the 384-well plate, and the plate was centrifuged at 1000 rpm for 1 min.(5) The plate was incubated at 25° C. for 15 min.(6) 10 μl of the mixture of anti-Tag1-Tb3+ and anti-Tag2-XL665 was added to the 384-well plate.(7) The plate was centrifuged at 1000 rpm for 1 min and incubated at 4° C. for 3 h.(8) The 665/615 nm ratio was read by a microplate reader.(9) Data analysis: The log value of the compound concentration was taken as the abscissa, and the 665/615 nm ratio was used as the ordinate, the data were analyzed by GraphPad Prism 8.0 software.

[2] = biological target: GTPase KRas (G12D) and Son of Sevenless Homolog 1 (SOS) (Homo sapiens, UniProt P01116+Q07889, G12D); assay: KRAS G12D/SOS1 Binding Assay
Procedure: as §1, with “Tag1-SOS1” for “Tag1-cRAF”

SMILES | IC50 [1] [nM] | IC50 [2] [nM]
C#Cc1c(F)ccc2cc(O)cc(-c3nc(OCCC(F)(F)F)c4c(N5CC6CCC(C6)C5)nc(OC[C@@]56CCCN5C[C@H](F)C6)nc4c3F)c12 [US20250034169, Compound 9] | 8.8 | 12.6
C#Cc1c(F)ccc2cc(O)cc(-c3nc(OCCOC)c4c(N5CC6CCC(C6)C5)nc(OC[C@@]56CCCN5C[C@H](F)C6)nc4c3F)c12 [US20250034169, Compound 10] | 8.7 | 13.9
[2H]C([2H])([2H])c1nc(-c2cc(O)cc3ccc(F)c(C#C)c23)c(F)c2nc(OC[C@@]34CCCN3C[C@H](F)C4)nc(N3CC4CCC(C4)C3)c12 [US20250034169, Compound 11] | 9.2 | 19.8
C#Cc1c(F)ccc2cc(O)cc(-c3nc(OCC)c4c(N5CC6CCC(C6)C5)nc(OC[C@@]56CCCN5C[C@H](F)C6)nc4c3F)c12 [US20250034169, Compound 12] | 9.7 | 10.3
C#Cc1c(F)ccc2cc(O)cc(-c3nc(C(=O)OCC)c4c(N5CC6CCC(C6)C5)nc(OC[C@@]56CCCN5C[C@H](F)C6)nc4c3F)c12 [US20250034169, Compound 13] | 5.1 | 11.3
C#Cc1c(F)ccc2cc(O)cc(-c3nc(C#CCC)c4c(N5CC6CCC(C6)C5)nc(OC[C@@]56CCCN5C[C@H](F)C6)nc4c3F)c12 [US20250034169, Compound 24] | 13.6 | 15.1
C#Cc1c(F)ccc2cc(O)cc(-c3nc(C#CCOC)c4c(N5CC6CCC(C6)C5)nc(OC[C@@]56CCCN5C[C@H](F)C6)nc4c3F)c12 [US20250034169, Compound 25] | 15 | 16.8
C#Cc1c(F)ccc2cc(O)cc(-c3nc(C#CC4CCCC4)c4c(N5CC6CCC(C6)C5)nc(OC[C@@]56CCCN5C[C@H](F)C6)nc4c3F)c12 [US20250034169, Compound 28] | 11.1 | 11.5
C#Cc1c(F)ccc2cc(O)cc(-c3nc(C#CCC(C)C)c4c(N5CC6CCC(C6)C5)nc(OC[C@@]56CCCN5C[C@H](F)C6)nc4c3F)c12 [US20250034169, Compound 29] | 14.7 | 15.9
C#Cc1c(F)ccc2cc(O)cc(-c3nc(C#CCCC(C)C)c4c(N5CC6CCC(C6)C5)nc(OC[C@@]56CCCN5C[C@H](F)C6)nc4c3F)c12 [US20250034169, Compound 30] | 8.8 | 13.4
C#Cc1c(F)ccc2cc(O)cc(-c3nc(C#CCCC#N)c4c(N5CC6CCC(C6)C5)nc(OC[C@@]56CCCN5C[C@H](F)C6)nc4c3F)c12 [US20250034169, Compound 31] | 24.6 | 34.6
C#Cc1c(F)ccc2cc(O)cc(-c3nc(C#C)c4c(N5CC6CC(C6)C5)nc(OC[C@@]56CCCN5C[C@H](F)C6)nc4c3F)c12 [US20250034169, Compound 41] | 22 | 31.4
C#Cc1c(F)ccc2cc(O)cc(-c3nc(C#C)c4c(N5CCC[C@@H](C)C5)nc(OC[C@@]56CCCN5C[C@H](F)C6)nc4c3F)c12 [US20250034169, Compound 43] | 16.3 | 24.1
C#Cc1c(F)ccc2cc(O)cc(-c3nc(C#C)c4c(N5C[C@H]6CC[C@@H]5C6)nc(OC[C@@]56CCCN5C[C@H](F)C6)nc4c3F)c12 [US20250034169, Compound 44] | 15.2 | 29.6
C#Cc1c(F)ccc2cc(O)cc(-c3nc(C#C)c4c(N5CC6CCC(C6)C5)nc(OC[C@]56CCCN5C[C@H](F)C6)nc4c3F)c12 [US20250034169, Compound 49] | 6.9 | 15.7
C#Cc1c(F)ccc2cc(O)cc(-c3nc(C#C)c4c(N5CC6CCC(C6)C5)nc(OC[C@H]5CCCN5C)nc4c3F)c12 [US20250034169, Compound 50] | 19.1 | 36.2
C#Cc1c(F)ccc2cc(O)cc(-c3nc(C#C)c4c(N5CC6CCC(C6)C5)nc(OC[C@@H]5CCCN5C)nc4c3F)c12 [US20250034169, Compound 51] | 11.1 | 20.8
C#Cc1c(F)ccc2cc(O)cc(-c3nc(C#C)c4c(N5C6CCCC5CC6)nc(OCC5(CN(C)C)CC5)nc4c3F)c12 [US20250034169, Compound 52] | 7.7 | 15.2
C#Cc1c(F)ccc2cc(O)cc(-c3nc(C#C)c4c(N5C6CCCC5CC6)nc(OCC5(CN6CCCCC6)CC5)nc4c3F)c12 [US20250034169, Compound 53] | 4.3 | 14.6
C#Cc1c(F)ccc2cc(O)cc(-c3nc(C#C)c4c(N5CC6CCC(C6)C5)nc(OCCC(F)(F)F)nc4c3F)c12 [US20250034169, Compound 55] | 9.8 | 14.8
C#Cc1c(F)ccc2cc(O)cc(-c3nc(C#C)c4c(N5CC6CCC(C6)C5)nc(OCC5CCCC5)nc4c3F)c12 [US20250034169, Compound 56] | 18.5 | 15.7
C#Cc1nc(-c2cc(O)cc3ccc(F)c(CC)c23)c(F)c2nc(OC[C@@]34CCCN3C[C@H](F)C4)nc(N3CC4CCC(C4)C3)c12 [US20250034169, Compound 65] | 9.9 | 18.5
